Measurements from US20250114369A1, “COMPOUNDS AND METHODS FOR TREATMENT OF VIRAL INFECTIONS” (Gilead Sciences, Inc., priority 2023, published 2025).

What was measured:
in vitro [1] = type: in vitro ADME; details: human, s9, pH 7.4
Description: Duplicate aliquots of test compound or positive control substrate (GS-7340) were added to S9 stock diluted with 100 mM potassium phosphate buffer, pH 7.4, to obtain a protein concentration of 2.4 mg/mL. The S9 metabolic reactions were initiated by the addition of the substrates to the S9 reaction mixture to a final concentration of 2 μM. At 2, 12, 25, 45, 65 and 90 min, 25 μL aliquots of the reaction mixture were transferred to plates containing 225 μl of IS/Q solution. After quenching, the plates were centrifuged at 3000×g for 30 minutes, and 150 μL aliquots of each supernatant were diluted with 150 μL water. Aliquots (10 μL) of the diluted supernatant were analyzed on a Thermo Q-Exactive mass spectrometer as described below. Quantification of test compounds and controls was performed by analyte/internal standard peak area ratio (PAR) values measured on a Thermo Q-Exactive mass spectrometer coupled to a Dionex UltiMate 3000 HPLC with a Leap Technologies HTC PAL autosampler. The column used was a Thermo Hypersil GOLD (1.9 μm particle size, 2.1×50 mm). Mobile phase A consisted of […] formic acid in water. Mobile phase B consisted of 0.1% (v/v) formic acid in acetonitrile. Elution of analytes was achieved by a series of linear gradients of acetonitrile in water containing 0.1% (v/v) formic acid. The mass spectrometer was calibrated on a weekly basis and mass tolerance of 5 ppm was used.

in vitro [2] = type: cell-based; details: human
Description: Cytotoxicity of the compounds was determined in uninfected cells using the cell viability reagent in a similar fashion as described before for other cell types (Cihlar et al., Antimicrob Agents Chemother. 2008, 52(2):655-65). HEp-2 (1.5×10^3 cells/well) and MT-4 (2×10^3 cells/well) cells were plated in 384-well plates and incubated with the appropriate medium containing 3-fold serially diluted compound ranging from 15 nM to 100,000 nM. Cells were cultured for 4-5 days at 37° C. Following the incubation, the cells were allowed to equilibrate to 25° C., and cell viability was determined by adding Cell-Titer Glo viability reagent. The mixture was incubated for 10 min, and the luminescence signal was quantified using an Envision plate reader. Untreated cell and cells treated at 2 μM puromycin (Sigma, St. Louis, MO) serve as […] cell viability control, respectively. The percent of cell viability was calculated for each tested compound concentration relative to the 0% and 100% controls and the CC50 value was determined by non-linear regression as a compound concentration reducing the cell viability by […].

[3] = tested on: Respiratory syncytial virus recombinant with luciferase (RSV-Luc5); experiment: microbe, parasite or virus in culture; type: cell-based; details: human respiratory syncytial virus, NHBE, 72 h, read-out: RSV NHBE EC50 (nM)
in vitro [4] = type: in vitro ADME; details: human, s9, pH 7.4; remark: listed apart in the source
Description: Duplicate aliquots of test compound or positive control substrate (GS-7340) were added to PMSF-free Intestinal S9 fractions diluted with 100 mM phosphate buffered saline, pH 7.4, to obtain a protein concentration of 1.0 mg/mL. The S9 metabolic reactions were initiated by the addition of the substrates to the S9 reaction mixture to a final concentration of 2 μM. At 0, 10, 20, 30, 60 and 120 min, 25 μL aliquots of the reaction mixture were transferred to plates containing 225 μl of IS/Q solution. After quenching, the plates were centrifuged at 3000×g for 30 minutes, and 150 μL aliquots of each supernatant were diluted with 150 μL water. Aliquots (10 μL) of the diluted supernatant were analyzed on a Thermo Q-Exactive mass spectrometer as described below. Quantification of test compounds and controls was performed by analyte/internal standard peak area ratio (PAR) values measured on a Thermo Q-Exactive mass spectrometer coupled to a Dionex UltiMate 3000 HPLC with a Leap Technologies HTC PAL autosampler. The column used was a Thermo Hypersil GOLD (1.9 μm particle size, 2.1×50 mm). Mobile phase A consisted of […] formic acid in water. Mobile phase B consisted of 0.1% (v/v) formic acid in acetonitrile. Elution of analytes was achieved by a series of linear gradients of acetonitrile in water containing 0.1% (v/v) formic acid. The mass spectrometer was calibrated on a weekly basis and mass tolerance of 5 ppm was used.

[5] = type: in vitro ADME; details: 2 μM
Description: Duplicate aliquots of plasma were warmed to 37° C. and the metabolic reactions initiated by the addition of test compound (6 μL of 0.1 mM DMSO stock) or plasma stability standard (GS-7340) to obtain a final substrate concentration of 2 μM. At 0.05, 0.5, 1, 2, 3 and 4 hr, 25 μL aliquots of the reaction mixture were transferred to plates containing 225 μl of IS/Q quenching solution. After quenching, the plates were centrifuged at 3000×g for 30 minutes, and 150 μL supernatant was diluted with 150 μL water. Aliquots (10 μL) of the diluted supernatant were analyzed on a Thermo Q-Exactive mass spectrometer as described below. Quantification of test compounds and controls was performed by analyte/internal standard peak area ratio (PAR) values measured on a Thermo Q-Exactive mass spectrometer coupled to a Dionex UltiMate 3000 HPLC with a Leap Technologies HTC PAL autosampler. The column used was a Thermo Hypersil GOLD (1.9 μm particle size, 2.1×50 mm). Mobile phase A consisted of […] formic acid in water. Mobile phase B consisted of 0.1% (v/v) formic acid in acetonitrile. Elution of analytes was achieved by a series of linear gradients of acetonitrile in water containing 0.1% (v/v) formic acid. The mass spectrometer was calibrated on a weekly basis and mass tolerance of 5 ppm was used.

[6] = tested on: Caco-2 cells (clone C2BBel); experiment: CACO-2 permeability; type: in vitro ADME; details: donor pH 6.5, receiver pH 7.4; for DM Caco2 A to B: forward (A to B); for DM Caco2 B to A: reverse (B to A)
Description: Pre-plated Caco-2 cells (clone C2BBel) were obtained from Sigma-Aldrich, Inc. (Atlanta, GA). Cell monolayers were grown to confluence on collagen-coated, microporous, polycarbonate membranes in 24-well transwell plates for 21 days. The permeability assay buffer in donor wells was Hanks' balanced salt solution (HBSS) containing 10 mM HEPES and 15 mM glucose at a pH of 6.5 containing 200 μM BNPP. The receiver wells used HBSS buffer containing 10 mM HEPES and 15 mM glucose at a pH of 7.4 and supplemented with 1% BSA. After an initial equilibration with transport buffer, TEER values were read to test membrane integrity. The experiment was started by the addition of buffers containing test compounds, 200 μl and 1000 μl in the apical and basolateral chamber, respectively. At 0- and 2-hour post dose, 10 μL was sampled from donor compartment and was immediately diluted in 190 μL of 20% methanol. At 1 and 2 hours post dose, 100 μl of solution was taken from the receiver compartments and was immediately diluted in 100 μl of 20% methanol. Removed buffer was replaced with fresh buffer and a correction was applied to all calculations for the removed material. Each compound was tested in 2 separate replicate wells for each condition. All samples were then extracted with 400 μl 100% acetonitrile with internal standard to precipitate protein. Cells were dosed on the apical or basolateral side to determine forward (A to B) and reverse (B to A) permeability. To test for non-specific binding and compound instability, the total amount of drug was quantitated at the end of the experiment and compared to the material present in the original dosing solution as a percent recovery. Formation of the parent compound (GS-441524; Reference Compound A) was monitored in assay wells dosed with the prodrug. Samples were analyzed by LC-MS/MS.

[7] = tested on: SARS Coronavirus 2 recombinant with NanoLuc (SARS-CoV2-NLuc); experiment: organism not typed; type: cell-based; details: 48 h
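Wherever CC50 is given: uninfected MT-4 cells over 4-5 days by CellTiter-Glo.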

| SMILES | half-life at 2 μM (in vitro [1]) [min] | CC50 (in vitro [2]) [µM] | EC50 [3] [nM] | half-life at 2 μM (in vitro [4]) [min] | STA Human Plasma 37 [5] | DM Caco2 A to B [6] | DM Caco2 B to A [6] | EC50 [7] [µM] |
| --- | --- | --- | --- | --- | --- | --- | --- | --- |
| N#C[C@@]1(c2ccc3c(N)ncnn23)O[C@H](COC(=O)N2CCCCCCC2)[C@@H](O)[C@H]1O [Compound 9, [(2R,3S,4R,5R)-5-(4-aminopyrrolo[2,1-f][1,2,4]triazin-7-yl)-5-cyano-3,4-dihydroxy-tetrahydrofuran-2-yl]methyl azocane-1-carboxylate] | 526 | > 50 | 10300 | 400 | 1584 | 0.47 | 6.67 | > 50 |
| CCOC(=O)c1cccn1C(=O)OC[C@H]1O[C@@](C#N)(c2ccc3c(N)ncnn23)[C@H](O)[C@@H]1O [Compound 10, O1-[[(2R,3S,4R,5R)-5-(4-aminopyrrolo[2,1-f][1,2,4]triazin-7-yl)-5-cyano-3,4-dihydroxy-tetrahydrofuran-2-yl]methyl]O2-ethyl pyrrole-1,2-dicarboxylate] | 4.6 | > 50 | 1520 | 1.71 | 68.966 | 0.22 | 5.54 | 5.16 |
| CCCSC(=O)OC[C@H]1O[C@@](C#N)(c2ccc3c(N)ncnn23)[C@H](OC(C)=O)[C@@H]1OC(C)=O [Compound 22, [(2R,3R,4R,5R)-4-acetoxy-5-(4-aminopyrrolo[2,1-f][1,2,4]triazin-7-yl)-5-cyano-2-(propylsulfanylcarbonyloxymethyl)tetrahydrofuran-3-yl]acetate] | ≤ 2 | > 50 | 3320 | 1.59 |  |  |  | 9.83 |
| CC(=O)O[C@H]1[C@@H](OC(C)=O)[C@](C#N)(c2ccc3c(N)ncnn23)O[C@@H]1COC(=O)SC1CCCC1 [Compound 25, [(2R,3R,4R,5R)-4-acetoxy-5-(4-aminopyrrolo[2,1-f][1,2,4]triazin-7-yl)-5-cyano-2-(cyclopentylsulfanylcarbonyloxymethyl)tetrahydrofuran-3-yl]acetate] | ≤ 2 | 32.5 | 1250 | 1.14 | 72.169 |  |  | 4.02 |
| CC(=O)O[C@H]1[C@@H](OC(C)=O)[C@](C#N)(c2ccc3c(N)ncnn23)O[C@@H]1COC(=O)SC(C)(C)C [Compound 24, [(2R,3R,4R,5R)-4-acetoxy-5-(4-aminopyrrolo[2,1-f][1,2,4]triazin-7-yl)-2-(tert-butylsulfanylcarbonyloxymethyl)-5-cyano-tetrahydrofuran-3-yl]acetate] | ≤ 2 | > 50 | 19400 | 0.921 |  |  |  | > 50 |
| CCSC(=O)OC[C@H]1O[C@@](C#N)(c2ccc3c(N)ncnn23)[C@H](OC(C)=O)[C@@H]1OC(C)=O [Compound 23, [(2R,3R,4R,5R)-4-acetoxy-5-(4-aminopyrrolo[2,1-f][1,2,4]triazin-7-yl)-5-cyano-2-(ethylsulfanylcarbonyloxymethyl)tetrahydrofuran-3-yl]acetate] | ≤ 2 | > 50 | 3810 | 0.885 |  |  |  | 12.4 |
| COC(=O)[C@H]1COC(=O)N1C(=O)OC[C@H]1O[C@@](C#N)(c2ccc3c(N)ncnn23)[C@H](O)[C@@H]1O [Compound 5, O3-[[(2R,3S,4R,5R)-5-(4-aminopyrrolo[2,1-f][1,2,4]triazin-7-yl)-5-cyano-3,4-dihydroxy-tetrahydrofuran-2-yl]methyl]04-methyl (4R)-2-oxooxazolidine-3,4-dicarboxylate] | 256 | > 50 | 20100 | 83.4 | 77.22 | 0.04 | 0.08 | 20.4 |
| CC(C)OC(=O)[C@@H](NC(=O)OC[C@H]1O[C@@](C#N)(c2ccc3c(N)ncnn23)[C@H](O)[C@@H]1O)C(C)C [Compound 7, isopropyl-((((2R,3S,4R,5R)-5-(4-aminopyrrolo[2,1-f][1,2,4]triazin-7-yl)-5-cyano-3,4-dihydroxytetrahydrofuran-2-yl)methoxy)carbonyl)-L-valinate] | ≥ 592 | > 50 | > 50000 | ≥ 792 | 1303.4 | 0.115 | 6.245 | > 50 |
